Several values for one entry are separate records, joined by “and”; a condition that tells them apart may be missing. Equal values may be shown once. Toxic doses and inconclusive results are not listed.
Tested on: P388 leukemia ip, CD2F1 mice, survival T/C
Test: NCI In Vivo Anticancer Drug Screen. Data for tumor model P388 Leukemia (intraperitoneal) in CD2F1 (CDF1) mice
Settings: endpoint: median survival time, higher = longer survival
Outline: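 Mice carrying the transplanted tumor received test compound or vehicle. Survival was recorded in each group, and the value is the treated-group measurement divided by that of the vehicle-treated control group.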

[1] = dose: 60.0 mg/kg/injection, schedule: Q01DX005 (ip), vehicle: saline with Tween-80
[2] = dose: 50.0 mg/kg/injection, schedule: Q04DX003 (ip), vehicle: saline with Tween-80
[3] = dose: 100.0 mg/kg/injection, schedule: Q04DX003 (ip), vehicle: saline with Tween-80
[4] = dose: 200.0 mg/kg/injection, schedule: Q04DX003 (ip), vehicle: saline with Tween-80
[5] = dose: 400.0 mg/kg/injection, schedule: Q04DX003 (ip), vehicle: saline with Tween-80
[6] = dose: 25.0 mg/kg/injection, schedule: Q01DX009 (ip), vehicle: saline with Tween-80
[7] = dose: 50.0 mg/kg/injection, schedule: Q01DX009 (ip), vehicle: saline with Tween-80
[8] = dose: 100.0 mg/kg/injection, schedule: Q01DX009 (ip), vehicle: saline with Tween-80
[9] = dose: 200.0 mg/kg/injection, schedule: Q01DX009 (ip), vehicle: saline with Tween-80
[10] = dose: 50.0 mg/kg/injection, schedule: Q01DX005 (ip), vehicle: Klucel (hydroxypropylcellulose) (HPC)
[11] = dose: 100.0 mg/kg/injection, schedule: Q01DX005 (ip), vehicle: Klucel (hydroxypropylcellulose) (HPC)
[12] = dose: 200.0 mg/kg/injection, schedule: Q01DX005 (ip), vehicle: Klucel (hydroxypropylcellulose) (HPC)
[13] = dose: 100.0 mg/kg/injection, schedule: Q01DX001 (ip), vehicle: Klucel (hydroxypropylcellulose) (HPC)
[14] = dose: 200.0 mg/kg/injection, schedule: Q01DX001 (ip), vehicle: Klucel (hydroxypropylcellulose) (HPC)
[15] = dose: 400.0 mg/kg/injection, schedule: Q01DX001 (ip), vehicle: Klucel (hydroxypropylcellulose) (HPC)
[16] = dose: 12.5 mg/kg/injection, schedule: Q01DX009 (ip), vehicle: saline with Tween-80
[17] = dose: 200.0 mg/kg/injection, schedule: Q01DX009 (ip), vehicle: saline
[18] = dose: 25.0 mg/kg/injection, schedule: Q01DX009 (ip), vehicle: saline
[19] = dose: 100.0 mg/kg/injection, schedule: Q01DX005 (ip), vehicle: saline with Tween-80
[20] = dose: 200.0 mg/kg/injection, schedule: Q01DX005 (ip), vehicle: saline with Tween-80

`CC(=O)OC1CC(C(=O)c2ccccc2)N2N=CN(c3ccccc3)C12` (centres undefined) was tested, and the T/C (dose: 60.0 mg/kg/injection, schedule: Q01DX005 (ip), vehicle: Klucel (hydroxypropylcellulose) (HPC)) was 103 % of control, the T/C (dose: 120.0 mg/kg/injection, schedule: Q01DX005 (ip), vehicle: Klucel (hydroxypropylcellulose) (HPC)) was 102 % of control and the T/C (dose: 240.0 mg/kg/injection, schedule: Q01DX005 (ip), vehicle: Klucel (hydroxypropylcellulose) (HPC)) was 104 % of control.
In the case of `NC(CSCc1ccccc1)C(=O)O` (centres undefined), the T/C (dose: 50.0 mg/kg/injection, schedule: Q01DX091 (ip), vehicle: Klucel (hydroxypropylcellulose) (HPC)) is reported as 100 % of control, the T/C (dose: 100.0 mg/kg/injection, schedule: Q01DX091 (ip), vehicle: Klucel (hydroxypropylcellulose) (HPC)) is reported as 102 % of control and the T/C (dose: 200.0 mg/kg/injection, schedule: Q01DX091 (ip), vehicle: Klucel (hydroxypropylcellulose) (HPC)) is reported as 91 % of control. The T/C (dose: 400.0 mg/kg/injection, schedule: Q01DX091 (ip), vehicle: Klucel (hydroxypropylcellulose) (HPC)) was 101 % of control.
In the case of `Cn1nnnc1/C=C/c1ccccc1`, the T/C (dose: 100.0 mg/kg/injection, schedule: Q04DX003 (ip), vehicle: Klucel (hydroxypropylcellulose) (HPC)) is reported as 106 % of control, the T/C (dose: 200.0 mg/kg/injection, schedule: Q04DX003 (ip), vehicle: Klucel (hydroxypropylcellulose) (HPC)) is reported as 104 % of control and the T/C (dose: 400.0 mg/kg/injection, schedule: Q04DX003 (ip), vehicle: Klucel (hydroxypropylcellulose) (HPC)) is reported as 105 % of control.
With `Cc1nnc(SCC2=C(C(=O)O)N3C(=O)C(NC(=O)Cn4cc(Cl)c(=O)c(Cl)c4)C3SC2)s1` (centres undefined) the T/C (dose: 50.0 mg/kg/injection, schedule: Q01DX009 (ip), vehicle: water) was 105 % of control, the T/C (dose: 100.0 mg/kg/injection, schedule: Q01DX009 (ip), vehicle: water) was 101 % of control and the T/C (dose: 200.0 mg/kg/injection, schedule: Q01DX009 (ip), vehicle: water) was 100 % of control.
With `CCN(CC)CCOC(=O)Nc1cc(Cl)cc(Cl)c1` the T/C [1] was 100 % of control, the T/C (dose: 120.0 mg/kg/injection, schedule: Q01DX005 (ip), vehicle: saline with Tween-80) was 101 % of control and the T/C (dose: 240.0 mg/kg/injection, schedule: Q01DX005 (ip), vehicle: saline with Tween-80) was 100 % of control.
`CCOC(=O)NC(=S)Nc1ccn(C)c1` was tested, and the T/C [2] was 99 % of control and 101 % of control, the T/C [3] was 100 % of control and 94 % of control and 97 % of control and the T/C [4] was 100 % of control. For the same compound, the T/C [5] was 98 % of control and 103 % of control and 97 % of control.
With `Cc1ccc(C)c(CCNC=O)c1` the T/C [6] was 100 % of control, the T/C [7] was 110 % of control and the T/C [8] was 98 % of control. For the same compound, the T/C [9] was 103 % of control.
For `[Cl][Sn]([Cl])([S]c1nccc2ccccc12)[S]c1nccc2ccccc12`, the T/C [7] was 102 % of control, the T/C [8] was 93 % of control and the T/C [9] was 93 % of control.
`O=c1n(-c2ccccc2)c(=O)n2n1C1C3C4CCC1C4(Cl)C32` (centres undefined) was tested, and the T/C (dose: 100.0 mg/kg/injection, schedule: Q01DX001 (ip), vehicle: saline with Tween-80) was 100 % of control, the T/C (dose: 200.0 mg/kg/injection, schedule: Q01DX001 (ip), vehicle: saline with Tween-80) was 94 % of control and the T/C (dose: 400.0 mg/kg/injection, schedule: Q01DX001 (ip), vehicle: saline with Tween-80) was 91 % of control.
In the case of `CCSC/C(=N\Nc1ccc([N+](=O)[O-])cc1[N+](=O)[O-])c1ccccc1`, the T/C [3] is reported as 100 % of control, the T/C [4] is reported as 95 % of control and the T/C [5] is reported as 90 % of control.
For `CC(NNC(=S)N1CCCCCC1)c1ccc2ccccc2n1` (centres undefined), the T/C [10] was 111 % of control, the T/C [11] was 110 % of control and 122 % of control and 95 % of control and the T/C [12] was 112 % of control and 113 % of control.
`Cn1c(=O)n(CCn2c(=O)n(C)c3ccccc32)c2ccccc21` was tested, and the T/C [13] was 91 % of control, the T/C [14] was 92 % of control and the T/C [15] was 91 % of control.
In the case of `CCOC(=O)C(=CN(C)c1ccc(Cl)cc1)C(=O)OCC`, the T/C (dose: 6.25 mg/kg/injection, schedule: Q01DX009 (ip), vehicle: saline with Tween-80) is reported as 102 % of control, the T/C [16] is reported as 94 % of control and the T/C [6] is reported as 103 % of control. The T/C [17] was 97 % of control.
With `CN1c2ccccc2C2=C(C(=O)CCS2)S1(=O)=O` the T/C (dose: 50.0 mg/kg/injection, schedule: Q01DX005 (ip), vehicle: saline) was 109 % of control, the T/C (dose: 100.0 mg/kg/injection, schedule: Q01DX005 (ip), vehicle: saline) was 100 % of control and the T/C (dose: 200.0 mg/kg/injection, schedule: Q01DX005 (ip), vehicle: saline) was 101 % of control.
With `S=C(Nc1ccc(Cl)c(Cl)c1)SC1CCCCC1` the T/C [18] was 107 % of control, the T/C (dose: 50.0 mg/kg/injection, schedule: Q01DX009 (ip), vehicle: saline) was 91 % of control and the T/C (dose: 50.0 mg/kg/injection, schedule: Q01DX009 (ip), vehicle: suspension in saline) was 105 % of control. For the same compound, the T/C (dose: 100.0 mg/kg/injection, schedule: Q01DX009 (ip), vehicle: saline) was 100 % of control, the T/C (dose: 100.0 mg/kg/injection, schedule: Q01DX009 (ip), vehicle: suspension in saline) was 115 % of control and the T/C [17] was 123 % of control. The T/C (dose: 200.0 mg/kg/injection, schedule: Q01DX009 (ip), vehicle: suspension in saline) was 120 % of control.
In the case of `C#CCOC(=O)C1CCCCC1`, the T/C [7] is reported as 110 % of control, the T/C [8] is reported as 110 % of control and the T/C [9] is reported as 112 % of control.
In the case of `O=C(O)Cn1nc([O-])[n+]2ccccc12`, the T/C [7] is reported as 100 % of control, the T/C [8] is reported as 94 % of control and the T/C [9] is reported as 110 % of control.
`CCCCNC(C)[C@]1(O)Cc2c(O)c3c(c(O)c2[C@@H](OC2CC(N)C(O)C(C)O2)C1)C(=O)c1c(OC)cccc1C3=O` (some centres undefined) was tested, and the T/C (dose: 1.25 mg/kg/injection, schedule: Q01DX009 (ip), vehicle: water) was 154 % of control, the T/C (dose: 2.5 mg/kg/injection, schedule: Q01DX009 (ip), vehicle: water) was 152 % of control and 170 % of control and the T/C (dose: 5.0 mg/kg/injection, schedule: Q01DX009 (ip), vehicle: water) was 176 % of control and 190 % of control. For the same compound, the T/C (dose: 10.0 mg/kg/injection, schedule: Q01DX009 (ip), vehicle: water) was 99 % of control.
For `c1ccc(C2CC(c3ccc(C4=NN(c5ccccc5)C(c5ccccc5)C4)cc3)=NN2c2ccccc2)cc1` (centres undefined), the T/C (dose: 25.0 mg/kg/injection, schedule: Q04DX003 (ip), vehicle: saline with Tween-80) was 102 % of control, the T/C [2] was 91 % of control and the T/C [3] was 87 % of control. The T/C [4] was 89 % of control and the T/C [5] was 100 % of control.
With `ClCCN1c2ccccc2Oc2cc3ccccc3cc21` the T/C (dose: 50.0 mg/kg/injection, schedule: Q01DX005 (ip), vehicle: saline with Tween-80) was 101 % of control, the T/C [19] was 110 % of control and the T/C [20] was 100 % of control.
In the case of `NC(=O)C(CC(C(=O)O)c1ccccc1)c1ccccc1` (centres undefined), the T/C [13] is reported as 99 % of control, the T/C [14] is reported as 96 % of control and the T/C [15] is reported as 97 % of control.
With `O=C(Oc1cc([N+](=O)[O-])cc([N+](=O)[O-])c1)C(c1ccccc1)c1ccccc1` the T/C [16] was 106 % of control, the T/C [6] was 112 % of control and the T/C [7] was 118 % of control.
With `Nn1c(-c2ccc(Cl)c(Cl)c2)nc2ccccc2c1=O` the T/C [7] was 89 % of control, the T/C [8] was 99 % of control and the T/C [9] was 98 % of control.
In the case of `CCOP(=S)(N/N=C(/c1ccc(C)s1)C(F)(F)F)OCC`, the T/C [10] is reported as 104 % of control, the T/C [11] is reported as 110 % of control and the T/C [12] is reported as 114 % of control.
For `CCc1ccc(-c2cc(-c3ccc(CC)cc3)cc(-c3ccc(CC)cc3)c2)cc1`, the T/C [1] was 100 % of control, the T/C [19] was 94 % of control and the T/C [20] was 91 % of control.
`CC(C)(c1ccccc1)c1cc(CN2CCCCC2)c(O)c(CN2CCCCC2)c1` was tested, and the T/C (dose: 0.78 mg/kg/injection, schedule: Q01DX009 (ip), vehicle: saline) was 100 % of control and 95 % of control, the T/C (dose: 1.56 mg/kg/injection, schedule: Q01DX009 (ip), vehicle: saline) was 104 % of control and 112 % of control and the T/C (dose: 3.13 mg/kg/injection, schedule: Q01DX009 (ip), vehicle: saline) was 108 % of control and 113 % of control and 121 % of control. The T/C (dose: 6.25 mg/kg/injection, schedule: Q01DX009 (ip), vehicle: saline) was 105 % of control and 90 % of control and 95 % of control, the T/C (dose: 12.5 mg/kg/injection, schedule: Q01DX009 (ip), vehicle: saline) was 94 % of control and the T/C [6] was 91 % of control. For the same compound, the T/C [18] was 96 % of control and the T/C [8] was 97 % of control.

— PubChem BioAssay AID330 (DTP/NCI, 2004)
